As usually defined, the IC50 is the concentration needed to halve the response being measured. Broadly, the inhibition is the percentage by which the read-out fell short of the control.

In one series the test system is Pol θ. In kind it is biochemical, Human. The note with it: 50 μM.
Another series concerns the target T1, MBD4 (Mus musculus, UniProt Q9Z2D7).
T1 sequence (Q9Z2D7 411-554 limits assumed): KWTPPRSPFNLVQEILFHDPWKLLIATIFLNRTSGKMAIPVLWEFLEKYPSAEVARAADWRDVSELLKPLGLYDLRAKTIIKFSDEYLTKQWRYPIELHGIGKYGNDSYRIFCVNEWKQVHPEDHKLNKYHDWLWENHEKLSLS
It counts as biochemical. To be noted: inhibitor 2 μM.

The target in the next series is TDG (Homo sapiens, UniProt Q13569). In kind it is biochemical.
Sequence of TDG (Q13569 whole entry): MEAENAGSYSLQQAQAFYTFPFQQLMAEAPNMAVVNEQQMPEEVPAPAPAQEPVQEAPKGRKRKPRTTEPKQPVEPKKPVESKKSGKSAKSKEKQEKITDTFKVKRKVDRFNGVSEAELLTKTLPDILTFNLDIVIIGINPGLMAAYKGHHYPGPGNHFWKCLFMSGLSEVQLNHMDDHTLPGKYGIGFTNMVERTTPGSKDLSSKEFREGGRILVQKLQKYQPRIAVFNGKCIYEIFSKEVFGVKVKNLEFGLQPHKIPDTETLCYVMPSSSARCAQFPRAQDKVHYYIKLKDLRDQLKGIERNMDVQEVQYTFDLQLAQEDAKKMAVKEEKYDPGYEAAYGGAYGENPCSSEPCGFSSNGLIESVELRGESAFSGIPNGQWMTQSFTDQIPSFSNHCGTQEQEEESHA
Another series addresses T2, MYH (Mus musculus, UniProt Q99P21).
T2 sequence (Q99P21 1-515): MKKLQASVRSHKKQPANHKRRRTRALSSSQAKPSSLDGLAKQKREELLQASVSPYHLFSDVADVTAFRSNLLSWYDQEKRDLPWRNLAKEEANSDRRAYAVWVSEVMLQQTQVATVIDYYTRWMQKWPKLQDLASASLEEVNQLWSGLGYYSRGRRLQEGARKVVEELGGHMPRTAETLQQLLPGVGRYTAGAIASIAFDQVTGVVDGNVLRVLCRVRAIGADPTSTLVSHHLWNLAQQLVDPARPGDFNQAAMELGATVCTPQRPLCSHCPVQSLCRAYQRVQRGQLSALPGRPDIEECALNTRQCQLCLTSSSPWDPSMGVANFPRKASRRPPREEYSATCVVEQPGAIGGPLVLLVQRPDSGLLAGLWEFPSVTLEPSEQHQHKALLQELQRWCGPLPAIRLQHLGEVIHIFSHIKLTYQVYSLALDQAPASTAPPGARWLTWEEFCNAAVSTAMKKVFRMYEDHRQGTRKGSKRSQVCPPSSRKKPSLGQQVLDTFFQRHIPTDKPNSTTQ
It counts as biochemical. The note with it: inhibitor 2 μM.

A further series deals with T3, Pol η (Homo sapiens, UniProt Q9Y253).
T3 sequence (Q9Y253 1-432 limits assumed): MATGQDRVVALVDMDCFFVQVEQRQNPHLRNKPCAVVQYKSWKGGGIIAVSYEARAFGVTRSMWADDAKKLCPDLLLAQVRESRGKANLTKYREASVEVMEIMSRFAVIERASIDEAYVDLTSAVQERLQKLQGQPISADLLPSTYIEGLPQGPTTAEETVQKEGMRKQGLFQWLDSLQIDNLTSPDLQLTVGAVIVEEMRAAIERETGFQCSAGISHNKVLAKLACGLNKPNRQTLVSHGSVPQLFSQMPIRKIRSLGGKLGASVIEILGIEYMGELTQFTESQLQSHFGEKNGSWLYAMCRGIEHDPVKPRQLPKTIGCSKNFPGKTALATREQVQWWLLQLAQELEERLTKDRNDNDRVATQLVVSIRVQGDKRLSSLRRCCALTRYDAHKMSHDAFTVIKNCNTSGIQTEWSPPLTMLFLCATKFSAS
The experiment in a line: Pol η nucleotide incorporation assay. It counts as biochemical.

The target of the next series is human DNMT1 (Homo sapiens, UniProt P26358). Briefly: biochemical.
Sequence of human DNMT1 (P26358 350-1600): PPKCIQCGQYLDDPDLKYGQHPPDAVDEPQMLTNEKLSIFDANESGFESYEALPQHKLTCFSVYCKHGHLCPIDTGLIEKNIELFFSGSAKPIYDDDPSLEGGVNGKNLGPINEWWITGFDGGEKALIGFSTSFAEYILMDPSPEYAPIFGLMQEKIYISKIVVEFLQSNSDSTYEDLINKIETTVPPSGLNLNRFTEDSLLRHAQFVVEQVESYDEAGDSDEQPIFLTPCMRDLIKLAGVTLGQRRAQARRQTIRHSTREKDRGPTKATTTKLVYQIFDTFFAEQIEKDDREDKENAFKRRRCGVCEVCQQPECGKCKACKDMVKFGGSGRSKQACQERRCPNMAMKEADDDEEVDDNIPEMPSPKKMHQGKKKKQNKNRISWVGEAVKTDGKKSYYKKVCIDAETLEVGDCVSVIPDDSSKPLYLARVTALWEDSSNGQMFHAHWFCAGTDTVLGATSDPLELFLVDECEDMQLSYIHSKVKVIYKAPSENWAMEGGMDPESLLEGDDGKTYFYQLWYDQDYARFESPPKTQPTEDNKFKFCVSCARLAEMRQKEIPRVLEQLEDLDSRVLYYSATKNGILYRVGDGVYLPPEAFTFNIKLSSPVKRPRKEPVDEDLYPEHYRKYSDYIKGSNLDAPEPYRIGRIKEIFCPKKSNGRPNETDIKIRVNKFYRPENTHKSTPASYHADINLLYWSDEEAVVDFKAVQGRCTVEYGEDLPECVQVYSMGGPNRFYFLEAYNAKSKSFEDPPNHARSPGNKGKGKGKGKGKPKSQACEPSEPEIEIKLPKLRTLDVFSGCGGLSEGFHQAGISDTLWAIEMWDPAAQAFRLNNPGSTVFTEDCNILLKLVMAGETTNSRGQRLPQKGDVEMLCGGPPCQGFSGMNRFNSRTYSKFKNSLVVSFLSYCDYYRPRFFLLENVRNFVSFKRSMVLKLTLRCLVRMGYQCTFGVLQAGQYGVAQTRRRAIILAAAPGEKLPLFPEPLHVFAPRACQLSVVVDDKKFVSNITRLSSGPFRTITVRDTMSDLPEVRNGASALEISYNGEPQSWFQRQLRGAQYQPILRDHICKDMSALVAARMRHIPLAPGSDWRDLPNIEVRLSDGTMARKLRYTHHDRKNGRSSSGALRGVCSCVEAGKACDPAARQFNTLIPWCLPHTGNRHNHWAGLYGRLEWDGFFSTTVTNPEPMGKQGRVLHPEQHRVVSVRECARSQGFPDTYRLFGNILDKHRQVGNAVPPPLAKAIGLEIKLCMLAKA
A further series deals with CcrM (Caulobacter vibrioides, UniProt P0CAW2). It counts as biochemical.
Sequence of CcrM (P0CAW2 whole entry): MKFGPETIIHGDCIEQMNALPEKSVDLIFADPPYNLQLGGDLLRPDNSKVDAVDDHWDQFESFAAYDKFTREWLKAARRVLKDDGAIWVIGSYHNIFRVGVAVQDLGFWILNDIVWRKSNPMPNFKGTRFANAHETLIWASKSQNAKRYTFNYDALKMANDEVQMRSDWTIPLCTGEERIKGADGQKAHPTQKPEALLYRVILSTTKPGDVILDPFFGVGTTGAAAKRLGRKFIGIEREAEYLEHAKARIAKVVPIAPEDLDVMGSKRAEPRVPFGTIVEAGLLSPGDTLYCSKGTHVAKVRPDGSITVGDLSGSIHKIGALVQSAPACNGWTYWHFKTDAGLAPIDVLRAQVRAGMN
For another series, the system named is CamA. In kind it is biochemical.
Another series concerns the target Dam (Escherichia coli, UniProt P0AEE8). In kind it is biochemical.
In series [1] the test system is A549 human non-small cell lung carcinoma (NSCLC) cells. In kind it is cell-based. The note with it: three days, same conditions as compound 11.
The target in the next series is DNMT3A2–3L complex (Homo sapiens, UniProt Q9Y6K1). It counts as biochemical. The note with it: [E]/[DNA] 1:2 versus 1:10, 10 μM.

Sequence of Dam (P0AEE8 whole entry): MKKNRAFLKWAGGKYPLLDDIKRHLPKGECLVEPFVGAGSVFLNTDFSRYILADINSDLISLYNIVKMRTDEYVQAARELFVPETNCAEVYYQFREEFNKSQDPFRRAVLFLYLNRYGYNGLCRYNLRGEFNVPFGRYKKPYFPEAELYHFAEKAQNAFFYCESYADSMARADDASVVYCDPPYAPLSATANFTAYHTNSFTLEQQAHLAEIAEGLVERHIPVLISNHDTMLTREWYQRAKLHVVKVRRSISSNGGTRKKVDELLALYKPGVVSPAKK

For `Cc1cc(Nc2ccc(NC(=O)c3ccc(Nc4ccnc5ccccc45)cc3)cc2)nc(N)n1` [Compound 1], the “inhibition of Pol θ activity” value with Pol θ is on record as ~ 50%. On MBD4, the “inhibition of MBD4 activity on T:G mismatch” value is “do not exhibit effective inhibition” and the “inhibition of MBD4 activity on U:G mismatch” value is on record as “do not exhibit effective inhibition”. On TDG, the “inhibition of TDG activity on T:G mismatch” value is listed as “do not exhibit effective inhibition”. For the same molecule, on MYH, the “inhibition of MYH excision of adenine opposite 8-oxoG” value was “do not exhibit effective inhibition”. Further, at Pol η (10 μM compound), the “inhibition of Pol η activity” value is reported as “more than 50%”. Moreover, the “inhibition of DNMT1” value at human DNMT1 (10 μM compound, [E]/[DNA]=1:10) is ~ 70%. In addition, at CcrM, the “inhibition of CcrM (in words)” value is given as “no inhibitory effect at all”. Further, the “inhibition of CamA” value in the series on CamA (10 μM) is “less than 50%”. Moreover, on Dam, the “inhibition of Dam (in words)” value is reported as “no inhibitory effect at all”.
In the case of `CCc1c(C#N)c(SC(C(N)=O)c2ccccc2)nc(N(C)C)c1C#N` (centres unmarked) [GSK3484862], in series [1], the “A549 cell viability / toxicity (in words)” value was “viabilities similar to control cells”.
Take `OC[C@H]1O[C@@H](n2cnc3c(NCCCc4ccccc4)ncnc32)[C@H](O)[C@@H]1O` [MC4741, (2R,3S,4R,5R)-2-(Hydroxymethyl)-5-(6-((3-phenylpropyl)-amino)-9H-purin-9-yl)tetrahydrofuran-3,4-diol]: the IC50 with CamA (read-out: IC50 against CamA) amounted to 700 nM.
Consider `Nc1ncnc2c1ncn2[C@@H]1O[C@H](C[C@@H](N)CC[C@H](N)C(=O)O)[C@@H](O)[C@H]1O` [sinefungin], for which, on DNMT3A2–3L complex, the “change of DNMT3A2–3L inhibition as a function of DNA substrate concentration” value is “did not change”. On Pol η (10 μM), the “impact on Pol η polymerase activity (in words)” value was “no impact on polymerase activity”. Further, on human DNMT1 (read-out: inhibition of DNMT1), the inhibition at 10 µM was approximately 50%. Further, the “inhibition of CcrM (in words)” value at CcrM is recorded as “significant inhibition”. In the series with CamA, the “inhibition of CamA (in words)” value is “limited inhibition”.
